Results from ChEMBL document CHEMBL1201862, “PubChem BioAssay data set” (2004).
Active and inactive are the calls of the source. Cut-off read from the data, not from the text of the source, for most assays here: actives have a measured EC50 and inactives only a lower limit.

Tests used:
[1] = microbe, parasite or virus in culture; assay type: functional; details: Mycobacterium tuberculosis
[2] = molecular target: T1, Calpain-2 catalytic subunit (Sus scrofa, UniProt P43367); experiment: pig calpain II inhibitor potency, dose response, biochemical, fluorogenic peptide substrate (AID 1420); assay type: functional
T1 sequence (P43367 whole entry): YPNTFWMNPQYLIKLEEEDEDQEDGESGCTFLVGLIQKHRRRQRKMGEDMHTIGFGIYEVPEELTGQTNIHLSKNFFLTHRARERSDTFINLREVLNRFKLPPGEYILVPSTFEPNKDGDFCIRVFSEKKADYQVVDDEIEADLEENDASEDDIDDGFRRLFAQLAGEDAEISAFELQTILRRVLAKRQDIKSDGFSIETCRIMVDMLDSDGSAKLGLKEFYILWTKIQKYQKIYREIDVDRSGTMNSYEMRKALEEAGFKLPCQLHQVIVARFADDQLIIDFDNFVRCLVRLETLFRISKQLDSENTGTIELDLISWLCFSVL

[3] = Luminescence Cell-Based Dose Confirmation HTS to Identify Inhibitors of Platelet Dense Granule Release. [Related pubchem assays: 1663 (Primary HTS), 1678 (Summary of Project)]; assay type: functional
[4] = molecular target: Luciferin 4-monooxygenase (Photinus pyralis, UniProt P08659); experiment: firefly luciferase enzyme inhibitors, dose response, biochemical, luminescence (AID 1891)
Chain of Luciferin 4-monooxygenase (P08659 whole entry): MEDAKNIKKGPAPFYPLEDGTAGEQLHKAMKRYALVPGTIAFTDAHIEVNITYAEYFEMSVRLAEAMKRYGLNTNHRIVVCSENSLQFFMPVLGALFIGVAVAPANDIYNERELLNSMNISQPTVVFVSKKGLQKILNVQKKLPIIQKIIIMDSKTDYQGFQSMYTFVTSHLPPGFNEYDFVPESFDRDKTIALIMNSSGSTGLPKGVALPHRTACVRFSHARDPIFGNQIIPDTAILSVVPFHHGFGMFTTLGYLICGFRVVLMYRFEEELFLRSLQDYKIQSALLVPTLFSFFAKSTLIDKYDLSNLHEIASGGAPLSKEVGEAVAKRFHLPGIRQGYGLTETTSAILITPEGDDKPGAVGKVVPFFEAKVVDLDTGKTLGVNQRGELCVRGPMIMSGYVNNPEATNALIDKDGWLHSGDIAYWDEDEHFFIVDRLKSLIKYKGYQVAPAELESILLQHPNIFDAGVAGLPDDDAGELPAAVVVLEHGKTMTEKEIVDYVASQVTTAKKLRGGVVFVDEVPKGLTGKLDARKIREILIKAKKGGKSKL

[5] = molecular target: T2, Heat shock factor protein 1 (Mus musculus, UniProt P38532); experiment: HSF1 potentiators in luciferase reporter cells, confirmation, cell-based, NIH3T3, luminescence, dose retest (AID 435004); assay type: functional;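 note: stress induced by proteasome inhibitor MG132 added 30 min after compound; luciferase reporter driven by HSF1 response element in NIH3T3 cells; actives raise luminescence as potentiators of the MG132 stress response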
T2 sequence (P38532 whole entry): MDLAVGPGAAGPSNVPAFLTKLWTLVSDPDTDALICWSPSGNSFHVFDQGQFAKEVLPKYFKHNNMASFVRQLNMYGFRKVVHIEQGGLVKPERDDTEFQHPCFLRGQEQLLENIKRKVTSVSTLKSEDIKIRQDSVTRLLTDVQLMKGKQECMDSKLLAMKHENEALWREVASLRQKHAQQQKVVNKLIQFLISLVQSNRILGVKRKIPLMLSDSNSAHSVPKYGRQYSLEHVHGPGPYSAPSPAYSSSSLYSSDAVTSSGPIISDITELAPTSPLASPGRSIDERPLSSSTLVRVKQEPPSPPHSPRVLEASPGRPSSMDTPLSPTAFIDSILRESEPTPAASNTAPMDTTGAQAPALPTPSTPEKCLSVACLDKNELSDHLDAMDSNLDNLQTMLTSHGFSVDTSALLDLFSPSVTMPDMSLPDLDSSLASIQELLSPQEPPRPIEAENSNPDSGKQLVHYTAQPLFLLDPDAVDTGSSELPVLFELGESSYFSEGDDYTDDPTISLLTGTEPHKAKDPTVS

[6] = cytotoxicity toward NIH3T3 fibroblasts, dose response, counter-screen, cell-based, ATP luminescence, mouse fibroblasts (AID 2010); assay type: functional;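 note: cells exposed to compound for about 90 hours before reading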
[7] = inhibitors of intracellular T. cruzi replication, confirmation, NIH3T3 host cells, beta-gal luminescence (AID 2044); assay type: functional, cell-based;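 note: intracellular parasites grown in NIH/3T3 mouse fibroblasts as host cells; luminescent beta-galactosidase reporter signal from transgenic T. cruzi replicating inside host cells; inhibitors lower the luminescence signal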
[8] = molecular target: T2, Heat shock factor protein 1; experiment: inhibition of MG132-induced HSE-luciferase signal, confirmation, cell-based, NIH3T3, luminescence, dose retest (AID 2382); assay type: functional;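 note: NIH3T3 fibroblasts with HSF1-driven luciferase reporter stressed by proteasome inhibitor MG132; luminescence from HSF1-driven luciferase expression after 8 hours of MG132 stress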
H4 = experiment: Luminescence Cell-Based Dose Response HTS to Identify Activators of 5'UTR Stem-Loop Driven Prion Protein mRNA Translation in H4 Neuroglioblastoma Cells. [Related pubchem assays: 1829 (Project Summary), 1814 (Primary HTS)]; assay type: functional; details: Homo sapiens
[9] = Luminescence Cell-Based Dose Confirmation HTS to Identify Activators of 5'UTR Stem-Loop Driven Alpha-Synuclein mRNA Translation in H4 Neuroglioblastoma Cells. [Related pubchem assays: 1829 (Project Summary), 1814 (Primary HTS)]; assay type: functional
[10] = Luminescence Cell-Based Dose Response HTS to Identify Activators of Luciferase Translation or Activity in H4 […] Cells. [Related pubchem assays: 1829 (Project Summary), 1814 (Primary HTS)]; assay type: functional
[11] = molecular target: T3, Corticotropin-releasing factor receptor 2/Corticotropin-releasing factor-binding protein (Homo sapiens, UniProt P24387+Q13324); experiment: activators of CRF receptor 2 with binding protein – uHTS hits, confirmation (AID 602473); assay type: functional; details: read-out: EC50_Mean
T3 sequence (Q13324 whole entry): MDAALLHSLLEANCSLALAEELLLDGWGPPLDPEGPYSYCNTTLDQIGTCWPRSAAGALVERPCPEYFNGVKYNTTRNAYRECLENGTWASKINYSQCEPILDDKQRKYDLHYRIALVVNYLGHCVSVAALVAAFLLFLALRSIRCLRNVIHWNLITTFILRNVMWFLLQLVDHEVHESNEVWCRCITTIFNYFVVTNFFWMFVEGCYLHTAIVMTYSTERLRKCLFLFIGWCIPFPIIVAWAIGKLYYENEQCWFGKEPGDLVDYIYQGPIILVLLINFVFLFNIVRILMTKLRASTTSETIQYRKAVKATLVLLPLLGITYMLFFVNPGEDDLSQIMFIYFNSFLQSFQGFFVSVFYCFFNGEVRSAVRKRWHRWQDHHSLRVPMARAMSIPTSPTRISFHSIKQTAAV
T3 sequence (P24387 whole entry): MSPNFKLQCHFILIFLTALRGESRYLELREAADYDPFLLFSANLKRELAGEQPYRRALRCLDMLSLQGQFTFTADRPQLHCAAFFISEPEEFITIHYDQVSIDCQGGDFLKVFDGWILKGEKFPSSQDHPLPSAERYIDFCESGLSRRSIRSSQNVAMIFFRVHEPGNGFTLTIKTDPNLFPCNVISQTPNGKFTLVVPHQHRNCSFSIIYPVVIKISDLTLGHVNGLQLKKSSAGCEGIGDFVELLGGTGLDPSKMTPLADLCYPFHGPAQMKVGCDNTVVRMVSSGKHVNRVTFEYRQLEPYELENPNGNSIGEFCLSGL

[12] = molecular target: T3, Corticotropin-releasing factor receptor 2/Corticotropin-releasing factor-binding protein; experiment: Dose Response confirmation of uHTS hits for small molecule antagonists of the CRF-binding protein and CRF-R2 receptor complex.; assay type: functional; details: read-out: IC50_Mean

Structure (SMILES) | CC50 [1] | EC50 [3] | EC50 [4] | further results
Nc1c(C(=O)OCC2CCCO2)c2nc3ccccc3nc2n1C1CCCC1 (stereo not given) | 38.3 µM (active) | – | – | –
COc1ccc(/C=C/C(=O)NC(=S)Nc2cc3oc4ccccc4c3cc2OC)cc1 | – | – | – | IC50 [2]: > 50 µM (not active)
COc1cc2cnc(-c3ccccc3)c(-c3ccc(C(F)(F)F)cc3)c2cc1OC | > 40 µM (active) | – | – | –
Cc1ccc(C(=O)NCCCNc2ccccc2[N+](=O)[O-])cc1 | – | – | – | IC50 [2]: 25.2 µM (not active)
O=C(Cn1cc(C(=O)c2ccco2)c2ccccc21)Nc1ccccc1 | – | – | – | IC50 [2]: 3.26 µM (not active)
O=C(Nc1nccs1)C1CCN(S(=O)(=O)c2ccc(Cl)c(C(F)(F)F)c2)CC1 | – | > 112 µM (not active) | > 112 µM (not active) | –
O=C(c1ccccc1Br)N1CCN(c2ccccc2)CC1 | – | – | – | EC50 [5]: > 260 µM (inactive)
COc1ccc(C2=NN(C(=O)CSC3=NN4CCCC(=O)N=C4S3)C(c3cccc(OC)c3OC)C2)cc1 (stereo not given) | – | > 112 µM (not active) | > 112 µM (not active) | –
Cc1ccccc1Nc1nc(N)nc(CSc2ccccc2)n1 | – | – | – | EC50 [5]: 19.1 µM (active)
Cc1c(NC(=O)c2c(N)n(-c3ccccc3)c3nc4ccccc4nc23)c(=O)n(-c2ccccc2)n1C | – | > 112 µM (not active) | > 112 µM (not active) | –
C=CCN(C(=O)CSc1nc2c(sc3ccccc32)c(=O)n1CCN(CC)CC)c1ccccc1 | 31.9 µM (active) | – | – | EC50 [6]: 11 µM (active); EC50 [7]: 0.606 µM (active)
Cn1c(CNc2cccc(Cl)c2)nnc1SCC#N | – | – | – | EC50 [5]: > 260 µM (inactive)
COc1ccc(C(=N)NOC(=O)Cc2ccccc2[N+](=O)[O-])cc1 | – | – | – | IC50 [2]: 10.1 µM (not active)
CCSc1nnc(NC(=O)Cc2cccc(OC)c2)s1 | – | – | – | IC50 [2]: 2.28 µM (not active)
CCN(CC)c1nc(NN)nc(Nc2ccc(C)c(Cl)c2)n1 | 31.8 µM (active) | – | – | –
NS(=O)(=O)c1ccc(NC(=O)COC(=O)C23CC4CC(CC(C4)C2)C3)cc1 | – | – | – | IC50 [2]: 3.33 µM (not active)
CCCc1cc(-c2nnc(S)n2Cc2ccccc2)cs1 | – | – | – | IC50 [2]: 22.1 µM (not active)

Structure (SMILES) | CC50 [1] | EC50 [3] | EC50 [4] | further results
Cc1ccc(C)n1-c1ccc(C(=O)NN=C2CCCC2)cc1 | – | > 112 µM (not active) | > 112 µM (not active) | –
COc1cc(OC)nc(Oc2ccccc2C(=O)Oc2ccc(Cl)cc2)n1 | > 40 µM (active) | – | – | EC50 [8]: > 195 µM (not active)
CSc1nc2sc(-c3ccccc3)cc2c(=O)n1N | – | < 0.701 µM (active) | 0.191 µM (active) | –
CC(=O)c1cccc(NC(=O)c2c(F)c(F)c(F)c(F)c2F)c1 | – | – | – | IC50 [2]: 17.2 µM (not active)
COc1ccc(Cc2nnc(NC(=O)c3c(-c4ccccc4)noc3C)s2)cc1 | – | > 112 µM (not active) | > 112 µM (not active) | –
Oc1ccc(N=Nc2n[nH]c(-c3ccc(Cl)cc3)n2)cc1 | 28.1 µM (active) | – | – | EC50 (H4): > 120 µM (not active); EC50 [9]: > 120 µM (not active); EC50 [10]: 8.25 µM (active)
Cc1nc(NC(=O)c2ccccc2)sc1C1(C)CC(c2ccc(OC(F)(F)F)cc2)=NO1 (stereo not given) | > 40 µM (active) | – | – | –
O=C(NCc1cccs1)c1ccc(C[S+]([O-])Cc2cccc(Cl)c2)o1 (stereo not given) | – | – | – | EC50 [11]: > 53 µM (inactive); IC50 [12]: > 47.1 µM (inactive)
CCc1cc(C(=O)NNC(=O)CCl)sc1C | 23.8 µM (active) | – | – | –
Cc1cccc(NC(=O)CN2CCC(C(=O)c3ccc4c(c3)OCCO4)CC2)c1 | – | > 112 µM (not active) | > 112 µM (not active) | –
CCCC1CC(C)(c2csc(Nc3ccc(OCC)cc3)n2)OC1=O (stereo not given) | > 40 µM (active) | – | – | –
COc1ccc(CC(=O)Nc2cccc(-c3cn4ccccc4n3)c2)cc1 | – | > 112 µM (not active) | > 112 µM (not active) | –
CSC(=S)N/N=C/c1ccccc1 | > 40 µM (active) | – | – | –
CCOC(=O)Cn1/c(=N/C(=O)CSC(C)=O)sc2ccccc21 | – | > 112 µM (not active) | > 112 µM (not active) | –
C(=N\c1nc2ccccc2[nH]1)/c1cccs1 | – | > 112 µM (not active) | 16.2 µM (active) | –
NC(=S)N/N=C/c1coc2c(ccc3ccccc32)c1=O | – | – | – | IC50 [2]: 24.6 µM (not active)
